Experimental data published in ChEMBL document CHEMBL5291721, “A preclinical secondary pharmacology resource illuminates target-adverse drug reaction associations of marketed drugs” (Nat Commun, 2023).

What was measured:
[1] = molecular target: Adenosine receptor A2a (Homo sapiens, UniProt P29274)
[2] = molecular target: T1, Adenosine receptor A3 (Homo sapiens, UniProt P0DMS8)
T1 sequence (P0DMS8 whole entry): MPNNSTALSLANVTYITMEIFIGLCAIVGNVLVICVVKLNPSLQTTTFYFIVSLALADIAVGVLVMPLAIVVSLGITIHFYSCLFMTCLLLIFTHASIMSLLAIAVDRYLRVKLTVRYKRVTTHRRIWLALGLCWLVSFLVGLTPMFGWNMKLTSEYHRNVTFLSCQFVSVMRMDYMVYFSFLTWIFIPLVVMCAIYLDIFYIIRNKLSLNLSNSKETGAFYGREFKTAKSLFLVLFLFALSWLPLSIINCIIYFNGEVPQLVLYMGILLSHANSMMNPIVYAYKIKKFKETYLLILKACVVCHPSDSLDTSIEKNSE

[3] = molecular target: T2, Alpha-2A adrenergic receptor (Homo sapiens, UniProt P08913); format: functional, cell-based
T2 sequence (P08913 whole entry): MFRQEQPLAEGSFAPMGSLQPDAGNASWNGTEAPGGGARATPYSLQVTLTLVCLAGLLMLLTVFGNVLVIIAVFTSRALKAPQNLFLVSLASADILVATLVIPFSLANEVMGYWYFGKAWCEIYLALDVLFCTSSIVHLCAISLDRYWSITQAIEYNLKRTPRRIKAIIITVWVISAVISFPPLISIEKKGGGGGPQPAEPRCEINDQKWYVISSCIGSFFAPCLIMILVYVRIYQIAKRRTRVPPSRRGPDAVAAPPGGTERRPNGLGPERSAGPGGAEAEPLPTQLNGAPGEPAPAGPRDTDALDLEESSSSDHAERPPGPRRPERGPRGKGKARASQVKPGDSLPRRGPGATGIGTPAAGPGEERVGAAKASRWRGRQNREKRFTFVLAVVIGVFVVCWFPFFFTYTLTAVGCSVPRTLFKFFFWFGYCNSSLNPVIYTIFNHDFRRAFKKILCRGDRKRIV

[4] = molecular target: T3, Type-1 angiotensin II receptor (Homo sapiens, UniProt P30556)
T3 sequence (P30556 whole entry): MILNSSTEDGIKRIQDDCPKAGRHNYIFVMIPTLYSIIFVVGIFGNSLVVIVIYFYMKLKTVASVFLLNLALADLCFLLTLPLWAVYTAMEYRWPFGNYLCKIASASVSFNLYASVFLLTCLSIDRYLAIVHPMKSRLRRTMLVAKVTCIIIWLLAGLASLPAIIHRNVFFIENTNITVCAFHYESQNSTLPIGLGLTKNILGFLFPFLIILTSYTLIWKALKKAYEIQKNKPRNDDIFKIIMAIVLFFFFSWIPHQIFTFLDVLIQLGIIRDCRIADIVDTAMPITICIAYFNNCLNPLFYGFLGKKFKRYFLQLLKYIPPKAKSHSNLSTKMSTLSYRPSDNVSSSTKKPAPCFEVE

[5] = molecular target: D(1A) dopamine receptor (Homo sapiens, UniProt P21728); format: functional, cell-based
Chain of D(1A) dopamine receptor (P21728 whole entry): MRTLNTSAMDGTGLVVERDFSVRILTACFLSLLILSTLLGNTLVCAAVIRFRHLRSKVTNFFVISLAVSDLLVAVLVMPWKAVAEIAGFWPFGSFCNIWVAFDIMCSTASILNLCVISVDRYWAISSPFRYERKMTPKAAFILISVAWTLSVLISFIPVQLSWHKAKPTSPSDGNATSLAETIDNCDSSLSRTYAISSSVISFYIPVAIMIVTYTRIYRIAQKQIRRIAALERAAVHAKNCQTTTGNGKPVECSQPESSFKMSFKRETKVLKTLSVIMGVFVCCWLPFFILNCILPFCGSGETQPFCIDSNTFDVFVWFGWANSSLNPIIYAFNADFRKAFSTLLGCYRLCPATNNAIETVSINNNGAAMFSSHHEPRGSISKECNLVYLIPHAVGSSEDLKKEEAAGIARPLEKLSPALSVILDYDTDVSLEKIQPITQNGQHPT

[6] = molecular target: Gamma-aminobutyric acid receptor subunit alpha-1 (Rattus norvegicus, UniProt P62813); format: functional
Chain of Gamma-aminobutyric acid receptor subunit alpha-1 (P62813 whole entry): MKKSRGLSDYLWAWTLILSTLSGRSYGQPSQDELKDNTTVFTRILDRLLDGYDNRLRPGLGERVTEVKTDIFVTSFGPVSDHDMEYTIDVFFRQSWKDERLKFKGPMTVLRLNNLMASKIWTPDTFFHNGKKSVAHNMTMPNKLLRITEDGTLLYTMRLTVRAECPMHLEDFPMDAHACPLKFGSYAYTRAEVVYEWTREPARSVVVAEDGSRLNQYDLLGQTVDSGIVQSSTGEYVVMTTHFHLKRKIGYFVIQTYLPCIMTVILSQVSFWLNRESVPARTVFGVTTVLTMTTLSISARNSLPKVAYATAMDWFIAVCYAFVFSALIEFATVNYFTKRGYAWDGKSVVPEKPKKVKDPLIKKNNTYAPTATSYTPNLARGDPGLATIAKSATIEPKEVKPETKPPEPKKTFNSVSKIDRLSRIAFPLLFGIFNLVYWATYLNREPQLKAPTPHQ

[7] = molecular target: T4, 5-hydroxytryptamine receptor 1A (Homo sapiens, UniProt P08908); format: functional, cell-based
T4 sequence (P08908 whole entry): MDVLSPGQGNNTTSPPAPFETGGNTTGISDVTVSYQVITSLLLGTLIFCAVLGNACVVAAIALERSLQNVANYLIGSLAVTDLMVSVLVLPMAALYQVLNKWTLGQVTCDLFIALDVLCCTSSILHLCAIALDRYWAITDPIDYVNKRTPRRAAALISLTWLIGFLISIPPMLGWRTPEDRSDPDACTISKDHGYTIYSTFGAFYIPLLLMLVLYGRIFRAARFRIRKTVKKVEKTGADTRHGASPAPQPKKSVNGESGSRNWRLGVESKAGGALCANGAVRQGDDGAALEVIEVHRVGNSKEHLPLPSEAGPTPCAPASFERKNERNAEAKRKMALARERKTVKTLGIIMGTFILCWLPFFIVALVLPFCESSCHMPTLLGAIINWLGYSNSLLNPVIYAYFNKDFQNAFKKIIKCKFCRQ

[8] = molecular target: Melanocortin receptor 3 (Homo sapiens, UniProt P41968)
Chain of Melanocortin receptor 3 (P41968 whole entry): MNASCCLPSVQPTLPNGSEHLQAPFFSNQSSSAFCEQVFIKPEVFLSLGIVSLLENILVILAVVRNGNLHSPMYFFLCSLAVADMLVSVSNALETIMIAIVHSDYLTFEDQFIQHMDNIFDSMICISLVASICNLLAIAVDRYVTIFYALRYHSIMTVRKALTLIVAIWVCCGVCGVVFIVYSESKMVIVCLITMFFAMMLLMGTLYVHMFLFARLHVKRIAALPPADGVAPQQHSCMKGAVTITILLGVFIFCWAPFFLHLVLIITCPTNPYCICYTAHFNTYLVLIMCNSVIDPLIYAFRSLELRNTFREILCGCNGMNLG

[9] = molecular target: Motilin receptor (Homo sapiens, UniProt O43193)
Chain of Motilin receptor (O43193 whole entry): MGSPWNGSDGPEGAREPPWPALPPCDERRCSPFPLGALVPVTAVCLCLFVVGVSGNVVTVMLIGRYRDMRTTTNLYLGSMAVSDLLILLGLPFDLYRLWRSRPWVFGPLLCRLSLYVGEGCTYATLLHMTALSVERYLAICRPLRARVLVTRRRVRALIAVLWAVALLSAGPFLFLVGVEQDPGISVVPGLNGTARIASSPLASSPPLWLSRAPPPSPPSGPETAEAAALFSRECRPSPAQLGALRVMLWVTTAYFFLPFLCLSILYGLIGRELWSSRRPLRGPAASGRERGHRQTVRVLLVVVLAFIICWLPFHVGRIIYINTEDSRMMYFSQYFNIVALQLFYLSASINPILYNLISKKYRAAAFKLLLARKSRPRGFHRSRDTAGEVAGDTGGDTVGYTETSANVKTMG

[10] = molecular target: T5, Equilibrative nucleoside transporter 1 (Homo sapiens, UniProt Q99808)
T5 sequence (Q99808 whole entry): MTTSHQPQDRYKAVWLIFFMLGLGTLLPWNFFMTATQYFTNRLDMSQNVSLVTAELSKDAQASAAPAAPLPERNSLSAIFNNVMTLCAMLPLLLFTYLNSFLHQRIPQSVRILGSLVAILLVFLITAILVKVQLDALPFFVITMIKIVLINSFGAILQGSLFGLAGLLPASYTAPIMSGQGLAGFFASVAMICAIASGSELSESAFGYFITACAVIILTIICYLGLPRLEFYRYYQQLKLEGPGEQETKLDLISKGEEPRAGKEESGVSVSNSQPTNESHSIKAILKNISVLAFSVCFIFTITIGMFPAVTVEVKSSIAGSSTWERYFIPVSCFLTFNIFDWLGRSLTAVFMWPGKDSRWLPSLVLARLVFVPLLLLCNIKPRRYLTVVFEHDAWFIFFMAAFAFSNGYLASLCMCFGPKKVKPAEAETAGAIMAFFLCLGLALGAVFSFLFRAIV

[11] = molecular target: T6, Amine oxidase [flavin-containing] A (Homo sapiens, UniProt P21397); format: functional
T6 sequence (P21397 whole entry): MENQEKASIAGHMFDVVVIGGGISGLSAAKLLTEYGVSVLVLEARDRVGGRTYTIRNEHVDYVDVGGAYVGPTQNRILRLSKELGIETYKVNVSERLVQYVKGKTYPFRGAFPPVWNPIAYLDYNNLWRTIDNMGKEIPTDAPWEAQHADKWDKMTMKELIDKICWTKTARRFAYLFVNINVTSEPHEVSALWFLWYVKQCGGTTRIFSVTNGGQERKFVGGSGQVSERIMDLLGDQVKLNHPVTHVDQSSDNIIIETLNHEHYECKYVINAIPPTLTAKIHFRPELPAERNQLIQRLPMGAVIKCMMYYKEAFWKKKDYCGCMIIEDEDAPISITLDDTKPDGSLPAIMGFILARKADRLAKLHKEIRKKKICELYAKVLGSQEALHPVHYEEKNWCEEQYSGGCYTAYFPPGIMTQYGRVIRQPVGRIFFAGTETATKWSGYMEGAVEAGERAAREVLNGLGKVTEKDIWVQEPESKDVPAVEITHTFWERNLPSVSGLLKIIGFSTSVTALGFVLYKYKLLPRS
Further: assay procedure not described here.

Chain of Adenosine receptor A2a (P29274 whole entry): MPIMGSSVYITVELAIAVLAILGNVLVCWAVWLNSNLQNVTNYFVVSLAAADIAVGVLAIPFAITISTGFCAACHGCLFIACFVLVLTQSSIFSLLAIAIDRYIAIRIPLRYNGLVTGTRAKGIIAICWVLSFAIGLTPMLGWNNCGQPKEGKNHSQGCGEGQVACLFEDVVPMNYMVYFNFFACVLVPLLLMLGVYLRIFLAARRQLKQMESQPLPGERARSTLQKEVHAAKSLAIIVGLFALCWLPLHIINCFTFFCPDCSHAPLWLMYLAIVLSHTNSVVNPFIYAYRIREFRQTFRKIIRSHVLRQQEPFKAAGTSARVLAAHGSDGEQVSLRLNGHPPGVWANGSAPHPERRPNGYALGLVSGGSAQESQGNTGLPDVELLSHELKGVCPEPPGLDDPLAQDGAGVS

Structure (SMILES) | AC50 [1] [µM] | AC50 [2] [µM] | AC50 [3] [µM] | AC50 [4] [µM] | AC50 [5] [µM] | AC50 [6] [µM] | AC50 [7] [µM] | AC50 [8] [µM] | AC50 [9] [µM] | AC50 [10] [µM] | AC50 [11] [µM]
CO[C@@H]1[C@@H](OC(N)=O)[C@@H](O)[C@H](Oc2ccc3c(O)c(NC(=O)c4ccc(O)c(CC=C(C)C)c4)c(=O)oc3c2C)OC1(C)C [NOVOBIOCIN] | > 30 | > 30 | > 30 | > 30 | > 30 | > 30 | > 30 | > 30 | > 30 | > 30 | > 30
NCCCCCC(=O)O [AMINOCAPROIC ACID] | > 10 | > 10 | > 10 | > 10 | > 10 | > 10 | > 10 | > 10 | > 10 | > 30 | > 10
O=C(O)[C@H]1/C(=C/CO)O[C@@H]2CC(=O)N21 [CLAVULANIC ACID] | > 30 | > 30 | > 30 | > 30 | > 30 | > 30 | > 30 | > 30 | > 30 | > 30 | > 30
CC(=O)Oc1ccccc1C(=O)O [ASPIRIN] | > 30 | > 30 | > 10 | > 30 | > 10 | > 10 | > 10 | > 30 | > 10 | > 30 | > 30

Now from value to compound:

AC50 [1] [µM] | AC50 [2] [µM] | AC50 [3] [µM] | AC50 [4] [µM] | AC50 [5] [µM] | AC50 [6] [µM] | AC50 [7] [µM] | AC50 [8] [µM] | AC50 [9] [µM] | AC50 [10] [µM] | AC50 [11] [µM] | Structure (SMILES)
> 30 | > 30 | > 30 | > 30 | > 30 | > 30 | > 30 | > 30 | > 30 | > 30 | > 30 | CC(=O)SCC(Cc1ccccc1)C(=O)NCC(=O)OCc1ccccc1 (stereo not drawn) [RACECADOTRIL]
> 10 | > 10 | > 10 | > 10 | > 10 | > 10 | > 10 | > 10 | > 10 | > 10 | > 10 | CNC1(C)C2CCC(C2)C1(C)C (stereo not drawn) [MECAMYLAMINE]
> 10 | > 10 | > 30 | > 10 | > 30 | > 30 | > 30 | > 10 | > 10 | > 10 | > 30 | O=C(c1ccccc1)c1ccc2n1CCC2C(=O)O (stereo not drawn) [KETOROLAC]
> 30 | > 30 | > 30 | > 30 | > 30 | > 30 | > 30 | > 30 | > 30 | > 30 | > 30 | C[C@H](Cn1cnc2c(N)ncnc21)OCP(=O)(O)O [TENOFOVIR ANHYDROUS]
